One block for each molecule: values may come before it.
Columns and labels:
[1] = Metabolic stability in human liver microsomes; assay type: in vitro ADME
Source text: (§1) A reference compound, REF1250, was used in this study: […]

MKK7 = target: T1, MKK7 (Homo sapiens, UniProt O14733); assay: In vitro kinase activity assay for MKK7 (Nanosyn); assay type: biochemical; details: read-out: MKK7 IC50 in vitro
T1 construct: purchased Nanosyn (contract assay)
T1 sequence (O14733 1-419): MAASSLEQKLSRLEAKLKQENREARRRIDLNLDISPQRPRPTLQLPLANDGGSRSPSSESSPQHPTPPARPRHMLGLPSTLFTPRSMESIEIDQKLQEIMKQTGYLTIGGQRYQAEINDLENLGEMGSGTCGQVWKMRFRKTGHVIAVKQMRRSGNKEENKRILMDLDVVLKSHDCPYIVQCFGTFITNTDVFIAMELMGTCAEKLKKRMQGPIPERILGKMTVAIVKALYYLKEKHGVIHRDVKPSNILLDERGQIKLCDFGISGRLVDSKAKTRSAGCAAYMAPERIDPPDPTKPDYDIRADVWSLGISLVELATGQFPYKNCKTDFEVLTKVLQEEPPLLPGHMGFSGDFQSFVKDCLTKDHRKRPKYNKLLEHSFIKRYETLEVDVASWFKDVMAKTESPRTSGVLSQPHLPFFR
Method: Based on visual inspection of the top 500 predictions, 10 compounds were selected for synthesis and testing (see, Table 1). The “Docking rank” is given in its respective run, whereas four virtual libraries of acrylamides were docked separately, based on the amine precursor for the acrylamide (primary or secondary aliphatic amines, primary or secondary aromatic amines). In vitro kinase activity assay was carried out by Nanosyn, as described below.
(§2) In Vitro Activity Assays for MKK7 or MKK4 (Carried by Nanosyn):
(§3) Exemplary test compounds, according to some embodiments of the present invention, were diluted in DMSO to a final concentration that ranged from 10 μM to 0.0565 nM, while final concentration of DMSO in all assays was kept at 1%. Reference compound, Staurosporine, was tested in a similar manner. […] After incubation, activity of now activated JNK1 was tested in the presence of 30 μM ATP ATP for 17 h (MKK7) or 4 h (MKK4).

[2] = Metabolic stability in mouse liver microsomes; assay type: in vitro ADME
Source text: as §1

MKK4 = target: T2, MKK4 (Homo sapiens, UniProt P45985); assay: In vitro activity assay for MKK4 (Nanosyn); assay type: biochemical
T2 construct: purchased Nanosyn (contract assay)
T2 sequence (P45985 1-399): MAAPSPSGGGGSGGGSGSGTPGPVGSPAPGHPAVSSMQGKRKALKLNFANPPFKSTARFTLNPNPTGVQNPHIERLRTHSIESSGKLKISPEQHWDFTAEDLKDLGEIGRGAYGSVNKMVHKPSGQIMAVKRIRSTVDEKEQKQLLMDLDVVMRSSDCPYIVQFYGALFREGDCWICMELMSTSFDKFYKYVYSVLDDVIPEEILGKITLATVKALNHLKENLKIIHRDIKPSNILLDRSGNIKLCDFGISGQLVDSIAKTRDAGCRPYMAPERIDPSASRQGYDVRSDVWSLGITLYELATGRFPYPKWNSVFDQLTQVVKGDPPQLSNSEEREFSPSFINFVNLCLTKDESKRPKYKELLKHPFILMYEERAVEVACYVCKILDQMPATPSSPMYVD
Method: as §2, §3

[3] = Metabolic stability in rat liver microsomes; assay type: in vitro ADME
Source text: as §1

[4] = Metabolic stability in dog liver microsomes; assay type: in vitro ADME
Source text: as §1

[5] = Metabolic stability in monkey liver microsomes; assay type: in vitro ADME
Source text: as §1

pJNK in 3T3 WT cells = assay: In-cell western (ICW) pJNK inhibition in 3T3 WT; assay type: cell-based
Method: (§4) HEK293, Beas2B and 3T3 cells were plated 24 hours before procedure on 384 well clear bottom black flat plates (Corning) pre-coated with Fibronectin (Sigma) diluted in PBS to a concentration of 5 μg/ml 45 minutes prior to cells introduction. Cells were plated using Multidrop™ Combi reagent dispenser (Thermo Fisher Scientific). Compound, reagents and antibody dispensing as well as washes were performed with a CyBio liquid handler (Analytik). Cells were pre-incubated with a small molecule or up to 1% DMSO for 2 h before fixation. HEK293, 3T3 or Beas2B cells were treated with 0.6M/0.2M/0.2M D-Sorbitol/PBS (Sigma) for 20/40/40 min. respectively, before fixation. Media was removed and wells were immediately fixed with 150 μl per well of 3.7% formaldehyde/PBS fixing solution for 20 min. Formaldehyde was then aspired and cells were permeabilized with 150 μl of 0.5% Triton x-100/PBS solution for 10 min. After aspiration cells were washed with ice-cold methanol and stored at −20° C., for 10 min. Methanol was aspired and cells were blocked with 150 μl blocking buffer (LICOR) for 90 min. Primary antibody Phospho-SAPK/JNK T183/Y185 (CST; 9251S) was diluted 1:1000 in blocking buffer and was applied 50 μl per well, except control wells to which only blocking buffer was applied, O.N. (16 h) at 4° C. with mild shaking. Primary antibody was aspired, wells were washed with 150 μl 0.1% Tween20/PBS (Sigma) washing solution three times for 7 min. IRDye® 800CW Goat anti-Rabbit IgG Secondary antibody (LICOR) was then diluted 1:1200 in blocking buffer with 50 μl applied per well on control wells only (no CellTag control), then CellTag700 (1:2000) was added to the solution and 50 μl were added to all experiment wells, for 1 h at room temperature. Wells were aspired and washed again with 150 μl 0.1% Tween20/PBS (Sigma) washing solution three times for 7 min. plate was dried and scanned with Odyssey CLx imaging system at 700 nm and 800 nm (Licor). Wells signals were analyzed with Odyssey software. The signal was normalized by the CellTag700 signal.
(§5) To rapidly assess the cellular activity (EC50) with full dose response curves of the MKK7 covalent inhibitors, according to some embodiments of the present invention, an in-cell western assay was adapted to a 384 well plate format over traditional western blot, and monitored phospho-JNK (pJNK) levels in response to osmotic shock. We first characterized the dynamics of pJNK in response to sorbitol. Sufficient dynamic range for pJNK is achieved at 20 minutes in HEK293 cells and at 40 minutes in 3T3 and Beas2B cells. The compound's activity was assessed by pre-treating cells with either compound or DMSO for 2 hours, followed by Sorbitol stimulation. The response of pJNK, and its substrates, pc-Jun and pATF2, was measured, as well as pP38, which is a substrate of MKK4 but not MKK7, and pERK in HEK293 cells, and the results are presented in Table 5 below.
Wildtype 3T3 cells, 3T3 MKK7 double knock-out (MKK7^−/−) cells and MKK4/7 double knockouts (MKK4/7^−/−) were used to validate on target activity of the MKK7 covalent inhibitors presented herein.

pJNK in HEK293 cells = assay: In-cell western (ICW) pJNK inhibition in HEK293; assay type: cell-based; details: Homo sapiens, HEK293, HEK293, ICW, 2 h pre-incubation, sorbitol stimulation
Method: as §4, §5

primary mouse B-cells = assay: Primary B-cell activation (CD86+ FACS) in response to LPS; assay type: cell-based; details: for IC50: full dose response
Source text: Compounds Block Activation of Primary Mouse B-Cells:
JNK is known to mediate activation of B-cells in response to lypopolysacharide (LPS) through the TLR4 signaling pathway as well as in response to B-cell receptor activation (stimulated e.g. with an anti-IgM antibody). Primary B-cells were isolated from the spleen of mice and assessed for their B-cell activation, via FACS analysis of CD86+ expression, in response to LPS in the presence or absence of the covalent MKK7 enzyme inhibitors presented herein, as well as a positive control JNK inhibitor, JNK-IN-8.
At 10 μM and 2 hours pre-incubation before stimulation, GO80 was able to inhibit 60% of the CD86+ response.

[6] = target: T3, MKK7 in MDA-MB-231 lysate (Homo sapiens, UniProt O14733); assay: Proteomic selectivity labeling in human cell lysate (MDA-MB-231); assay type: binding
T3 construct: endogenous in cells; host or cells: MDA-MB-231
T3 sequence (O14733 1-419): T1 sequence (O14733 1-419)

JNK activation = assay: KTR reporter live cell imaging of JNK activation; assay type: cell-based; details: Homo sapiens; HEK293 cells; read-out: EC50 of test and control compounds
Source text: As an orthogonal assay for the ICW we used a KTR reporter cell line for JNK activation via live cell imaging.

SMILES: C=CC(=O)Nc1cccc(-c2n[nH]c3cc(Br)ccc23)c1 [GO98]
% remaining @ 40 min [1]: 0%
half-life ([1]; human, liver microsomes): < 5 min
IC50 (MKK7): 0.01 µM
% remaining @ 40 min [2]: 0%
half-life ([2]; mouse, liver microsomes): < 5 min
IC50 (MKK4): > 10 µM
% remaining @ 40 min [3]: 2%
half-life ([3]; rat, liver microsomes): 6 min
% remaining @ 40 min [4]: 0%
half-life ([4]; dog, liver microsomes): < 5 min
% remaining @ 40 min [5]: 0%
half-life [5]: < 5 min

SMILES: C=CC(=O)N[C@H]1CCCN(c2[nH]nc3ccccc23)C1 [PCM531]
activity in ICW in 3T3 cells (pJNK in 3T3 WT cells; 3T3 cells): inactive
EC50 (pJNK in HEK293 cells): > 10 µM

SMILES: C=CC(=O)Nc1cc(C(=O)NC)cc(-c2n[nH]c3ccccc23)c1 [PCM487]
% remaining @ 40 min [1]: 38%
Halflife [1]: 27 min
% remaining @ 40 min [2]: 3%
Halflife [2]: 8 min
EC50 (pJNK in 3T3 WT cells; 3T3 WT, ICW, 2 h pre-incubation, sorbitol stimulation, listed as PCM87): 4.06 µM
inhibition of the CD86+ response (primary mouse B-cells; 10 μM, 2 hours pre-incubation): ~90%
IC50 (primary mouse B-cells): 4.9 µM
% remaining @ 40 min [3]: 72%
Halflife [3]: >40 min
% remaining @ 40 min [4]: 71%
Halflife [4]: >40 min
% remaining @ 40 min [5]: 41%
Halflife [5]: 33 min

Continued, in another order:

proteins labeled ([6]; at 2 μM): the only target
proteins labeled ([6]; at 5 μM): MKK7 seems to be the dominant target
proteins labeled ([6]; at 10 μM): labels many proteins
IC50 (primary mouse B-cells; Mus musculus, B-cell): 5.3 µM
SMILES: C#CCNC(=O)c1cc(NC(=O)C=C)cc(-c2n[nH]c3ccccc23)c1 [PCM548]
inhibition at 10 µM (primary mouse B-cells; Mus musculus, B-cell, 10 μM, 2 hours pre-incubation): ~90%

EC50 (JNK activation): > 10 µM
SMILES: CCC(=O)Nc1cccc(-c2[nH]nc3ccccc23)c1 [PCM520]

Source: patent publication US20210238173A1, “MITOGEN-ACTIVATED PROTEIN KINASE KINASE 7 INHIBITORS” (Yeda Research and Development Co. Ltd., priority 2018, published 2021)
